Results taken from paper PMC7464785 (Pharmaceutics, 2020).
Where “and” joins values, the source holds several entries; their conditions need not be identical. Equal values may be shown once. Read-outs that look alike come from different tables or passages of the source.

Legend:
[1] = Pharmacokinetics after oral administration to control, G-ARF and C-ARF rats; format: in vivo, Sprague–Dawley rats; conditions: for CL renal: read-out: CLR (time-averaged renal clearance); for bioavailability: read-out: F (absolute oral bioavailability)
Protocol: Rats were randomly divided into three groups: control, G-ARF, and C-ARF rats. Acute renal failure was induced in rats by intraperitoneal injection of gentamicin (100 mg/kg, dissolved in 0.9% NaCl-injectable solution) daily for 8 days or by a single intraperitoneal injection of cisplatin (7.5 mg/kg, dissolved in 0.9% NaCl-injectable solution), while control rats were injected with 0.9% NaCl-injectable solution only. […] BUN (Blood urea nitrogen) levels were measured in rats on the last day of induction using a BUN detection kit (Asan Pharmaceutical, Seoul, Korea). Rats with a urea nitrogen level of 36 mg/dL or higher were considered to be acute renal failure-induced and were selected for the study.
For oral and intravenous administration, pretreatment and surgical procedures were performed as previously reported. For oral study, the rats were restricted from eating food overnight but water was freely accessible. The next day, after anesthesia with ketamine at a dose of 100 mg/kg, polyethylene 50 tubes (Clay Adams, Parsippany, NJ, USA) was cannulated into the carotid artery for blood collection. For intravenous study, polyethylene 50 tubes were cannulated into the carotid artery and jugular vein for blood collection and drug administration, respectively. After surgery, rats were allowed to rest for 2–3 h to recover from anesthesia and were free in the individual metabolic cage during the experiment.
Blood samples (110 µL) were collected through the carotid artery at 0 (prior to drug administration), 5, 15, 30, 45, 60, 90, 120, 180, 240, 360, 480, 600, and 720 min. At 24 h after drug administration, urine and gastrointestinal tract samples were collected and handled similarly to those in the intravenous study.
A 50-μL aliquot of biological sample was mixed with 1 μL hydrocortisone (5 mg/mL); then, 20 μL of 20% ammonia solution was added, mixed with a vortex-mixer (Scientific Industries, Bohemia, NY, USA) for 30 s, and extracted with 750 µL ethyl acetate. The organic layer was collected, evaporated on a thermobath (Eyela, Tokyo, Japan) under a gentle stream of nitrogen gas at 40 °C and redissolved by adding 130 µL 20% acetonitrile, and 50 µL of each reconstituted sample was analyzed by HPLC [12, 22].
The reconstituted biological samples were filtered through a 0.45-µm filter (Millipore, Billerica, MA, USA) and analyzed with a reversed-phase column (C18; 25 cm × 4.6 mm, 5 µm; Young Jin Biochrom, Seongnam, Korea) using a UV detector at 287 nm. The mobile phase consisted of 10 mM ammonium acetate buffer (pH 5.0) and acetonitrile at a ratio of 69.5:30.5 (v/v) with a flow rate of 1.0 mL/min.
To estimate pharmacokinetic parameters such as terminal half-life, the apparent volume of distribution at steady state (Vss), area under plasma concentration-time curves from time zero to time infinity (AUC), mean residence time (MRT), and time-averaged total body (CL), and renal (CLR) and nonrenal (CLNR) clearances, standard methods were applied using noncompartmental analysis (WinNonlin, Pharsight Corporation, Mountain View, CA, USA). AUCs were calculated using the trapezoidal rule-extrapolation method. The peak plasma concentration (Cmax) and time that the plasma concentration was peak (Tmax) were directly confirmed from plasma concentration-time curves. To calculate the average values of clearances, terminal half-life, and Vss, the harmonic mean method was applied.

plasma proteins = conditions: equilibrium dialysis; cited from earlier work
[2] = intravenous doses over 20 mg/kg and oral doses over 50 mg/kg; cited from earlier work
[3] = cited from earlier work
[4] = Sprague-Dawley, rat, plasma, po, 20 mg/kg, C-ARF rats
[5] = Sprague-Dawley, rat, plasma, po, 20 mg/kg, G-ARF rats
[6] = Sprague-Dawley, rat, plasma, po, 20 mg/kg, control rats
[7] = control rats, oral 20 mg/kg, 20 mg/kg

C[C@@H]1CCN(C(=O)CC#N)C[C@@H]1N(C)c1ncnc2[nH]ccc12 [tofacitinib, Tofacitinib]
Ae0–24 h (dose excreted in the 24-h urine) ([1]; C-ARF rats, oral 20 mg/kg): 1.16 ± 1.37 % of dose | decrease of Ae0–24 h versus control rats ([1]; C-ARF rats, oral 20 mg/kg): 81.3% | increase of AUC versus control rats ([1]; C-ARF rats, oral 20 mg/kg): 247% | increase of Cmax versus control rats ([1]; C-ARF rats, oral 20 mg/kg): 141% | GI24 h (dose remaining in the gastrointestinal tract at 24 h) ([1]; C-ARF rats, oral 20 mg/kg, 20 mg/kg): 0.505 % of dose and 0.505 ± 0.535 % of dose | Ae0–24 h (dose excreted in the 24-h urine) ([1]; G-ARF rats, oral 20 mg/kg): 4.82 ± 3.06 % of dose | decrease of Ae0–24 h versus control rats ([1]; G-ARF rats, oral 20 mg/kg): 22.4% | decrease of CLR versus control rats ([1]; G-ARF rats, oral 20 mg/kg): 69.8% | increase of AUC versus control rats ([1]; G-ARF rats, oral 20 mg/kg): 142% | increase of Cmax versus control rats ([1]; G-ARF rats, oral 20 mg/kg): 198% | GI24 h (dose remaining in the gastrointestinal tract at 24 h) ([1]; G-ARF rats, oral 20 mg/kg, 20 mg/kg): 1.27 % of dose and 1.27 ± 1.72 % of dose | AUC [1, 4]: 12500 ng·h/mL | Tmax [1, 4]: 41.3 min | CL renal [1, 4]: 0.3 ± 0.495 mL/min/kg | Cmax ([1]; Sprague-Dawley, rat, plasma, po, 20 mg/kg, C-ARF rats, read-out: Cmax): 4200 ± 3030 ng/mL | bioavailability [1, 4]: 54.3% | AUC [1, 5]: 8750 ng·h/mL | Tmax [1, 5]: 30.8 min | CL renal [1, 5]: 1.71 ± 0.871 mL/min/kg | Cmax ([1]; Sprague-Dawley, rat, plasma, po, 20 mg/kg, G-ARF rats, read-out: Cmax): 5180 ± 2590 ng/mL | bioavailability [1, 5]: 60.7% | AUC [1, 6]: 3620 ng·h/mL | Tmax [1, 6]: 71.9 min | CL renal [1, 6]: 5.66 ± 1.03 mL/min/kg | bioavailability [1, 6]: 41.3% | GI24 h ([1]; across control, G-ARF and C-ARF rats, oral 20 mg/kg): less than 1.27 % of oral dose | Cmax ([1]; control rats, oral 20 mg/kg): 1740 ± 606 ng/mL | Ae0–24 h (dose excreted in the 24-h urine) [1, 7]: 6.21 % of dose and 6.21 ± 1.12 % of dose | GI24 h (dose remaining in the gastrointestinal tract at 24 h) [1, 7]: 0.231 % of dose and 0.231 ± 0.235 % of dose | plasma protein binding (plasma proteins): 20.7% | dose proportionality of AUCs [2]: not dose proportional | half-life ([3]; healthy volunteers, oral 10 mg): 192 min | oral dose bound to plasma protein ([3]; healthy volunteers, oral 10 mg): Approximately 40% | volume of distribution ([3]; healthy volunteers, oral 10 mg): 87 L | Absolute oral bioavailability (F) ([3]; human): approximately 74%
